Values after ≈ are worked out from the molar mass of the structure shown.
Tested on: Mycobacterium tuberculosis variant bovis BCG
Test: Antibacterial activity against Mycobacterium bovis BCG ATCC 35734 up to 2 weeks by HT-SPOTi assay
Format: functional
Conditions: ATCC 35734, 336 h

Structure (SMILES)	MIC [µg/mL]
CCCCCCCC(=O)NCC#Cc1cn([C@H]2C[C@H](O)[C@@H](COP(=O)(N[C@@H](C)C(=O)OCC)Oc3ccccc3)O2)c(=O)[nH]c1=O (stereo partly drawn)	250 (≈ 377 µM)
CCCCCCCC(=O)NCC#Cc1cn([C@H]2C[C@H](O)[C@@H](COP(=O)(N[C@@H](C)C(=O)OC)Oc3ccccc3)O2)c(=O)[nH]c1=O (stereo partly drawn)	> 250
CCCCCCCC(=O)NCC#Cc1cn([C@H]2C[C@H](O)[C@@H](COP(=O)(NCC(=O)OCc3ccccc3)Oc3ccccc3)O2)c(=O)[nH]c1=O (stereo partly drawn)	> 250
CCCCCCCC(=O)NCC#Cc1cn([C@H]2C[C@H](O)[C@@H](COP(=O)(N[C@@H](C)C(=O)OC)Oc3cccc4ccccc34)O2)c(=O)[nH]c1=O (stereo partly drawn)	62.5 (≈ 89.5 µM)
CCCCCCCC(=O)NCC#Cc1cn([C@H]2C[C@H](O)[C@@H](COP(=O)(N[C@H](C(=O)OCc3ccccc3)C(C)C)Oc3ccccc3)O2)c(=O)[nH]c1=O (stereo partly drawn)	125 (≈ 166 µM)
CCCCCCCC(=O)NCC#Cc1cn([C@H]2C[C@H](O)[C@@H](CO)O2)c(=O)[nH]c1=O	> 250
CCCCCCCC(=O)NCC#Cc1cn([C@H]2C[C@H](O)[C@@H](COP(=O)(N[C@H](C)C(=O)OCc3ccccc3)Oc3ccccc3)O2)c(=O)[nH]c1=O (stereo partly drawn)	62.5 (≈ 86.2 µM)
CCCCCCCC(=O)NCC#Cc1cn([C@H]2C[C@H](O)[C@@H](COP(=O)(N[C@@H](C)C(=O)OCCC)Oc3ccccc3)O2)c(=O)[nH]c1=O (stereo partly drawn)	125 (≈ 185 µM)
CCCCCCCC(=O)NCC#Cc1cn([C@H]2C[C@H](O)[C@@H](COP(=O)(N[C@@H](C)C(=O)OCc3ccccc3)Oc3ccccc3)O2)c(=O)[nH]c1=O (stereo partly drawn)	125 (≈ 172 µM)
CCCCCCCC(=O)NCC#Cc1cn([C@H]2C[C@H](O)[C@@H](COP(=O)(N[C@@H](C)C(=O)OCc3ccccc3)Oc3cccc4ccccc34)O2)c(=O)[nH]c1=O (stereo partly drawn)	250 (≈ 323 µM)
CCCCCCCC(=O)NCC#Cc1cn([C@H]2C[C@H](O)[C@@H](COP(=O)(N[C@@H](C)C(=O)OCC)Oc3cccc4ccccc34)O2)c(=O)[nH]c1=O (stereo partly drawn)	125 (≈ 175 µM)
CCCCCCCC(=O)NCC#Cc1cn([C@H]2C[C@H](O)[C@@H](COP(=O)(N[C@@H](C)C(=O)OCC(C)C)Oc3cccc4ccccc34)O2)c(=O)[nH]c1=O (stereo partly drawn)	125 (≈ 169 µM)
CCCCCCCC(=O)NCC#Cc1cn([C@H]2C[C@H](O)[C@@H](COP(=O)(NC(C)(C)C(=O)OCc3ccccc3)Oc3ccccc3)O2)c(=O)[nH]c1=O (stereo partly drawn)	125 (≈ 169 µM)

From ChEMBL document CHEMBL3259765, “ProTides of N-(3-(5-(2'-deoxyuridine))prop-2-ynyl)octanamide as potential anti-tubercular and anti-viral agents” (Bioorg Med Chem, 2014)
